# In publication PMC6591251, “Discovery of potent necroptosis inhibitors targeting RIPK1 kinase activity for the treatment of inflammatory disorder and cancer metastasis” (Cell Death & Disease, 2019):
# Columns and labels:
# Assay in all cases: RBC kinase panel
# Assay type in all cases: biochemical
# Conditions in all cases: ATP 10 μM, Data1, Data2
# c-Kit = biological target: T1, c-Kit (Homo sapiens, UniProt P10721)
# T1 construct: purchased Reaction Biology Corporation
# Summary of the method: (§1)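 The compound (1 μM) was tested in duplicate against each of 369 kinases of human origin, using 10 μM ATP throughout.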
# MEKK1 = biological target: T2, MEKK1 (Homo sapiens, UniProt Q13233)
# T2 construct: purchased Reaction Biology Corporation
# Summary of the method: as §1
# BRAF = biological target: T3, BRAF (Homo sapiens, UniProt P15056)
# T3 construct: purchased Reaction Biology Corporation
# Summary of the method: as §1
# MEKK6 = biological target: T4, MEKK6 (Homo sapiens, UniProt O95382)
# T4 construct: purchased Reaction Biology Corporation
# Summary of the method: as §1
# MSK2/RPS6KA4 = biological target: T5, MSK2/RPS6KA4 (Homo sapiens, UniProt O75676)
# T5 construct: purchased Reaction Biology Corporation
# Summary of the method: as §1
# TTBK1 = biological target: T6, TTBK1 (Homo sapiens, UniProt Q5TCY1)
# T6 construct: purchased Reaction Biology Corporation
# Summary of the method: as §1
# MEK1 = biological target: T7, MEK1 (Homo sapiens, UniProt Q02750)
# T7 construct: purchased Reaction Biology Corporation
# Summary of the method: as §1
# EPHA6 = biological target: T8, EPHA6 (Homo sapiens, UniProt Q9UF33)
# T8 construct: purchased Reaction Biology Corporation
# Summary of the method: as §1
# Aurora B = biological target: T9, Aurora B (Homo sapiens, UniProt Q96GD4)
# T9 construct: purchased Reaction Biology Corporation
# Summary of the method: as §1
# PAK3 = biological target: T10, PAK3 (Homo sapiens, UniProt O75914)
# T10 construct: purchased Reaction Biology Corporation
# Summary of the method: as §1
# AXL = biological target: T11, AXL (Homo sapiens, UniProt P30530)
# T11 construct: purchased Reaction Biology Corporation
# Summary of the method: as §1
# HIPK4 = biological target: T12, HIPK4 (Homo sapiens, UniProt Q8NE63)
# T12 construct: purchased Reaction Biology Corporation
# Summary of the method: as §1
# PAK1 = biological target: T13, PAK1 (Homo sapiens, UniProt Q13153)
# T13 construct: purchased Reaction Biology Corporation
# Summary of the method: as §1
# DCAMKL1 = biological target: T14, DCAMKL1 (Homo sapiens, UniProt O15075)
# T14 construct: purchased Reaction Biology Corporation
# Summary of the method: as §1
# CDK5/p25 = biological target: T15, CDK5/p25 (Homo sapiens, UniProt Q00535)
# T15 construct: purchased Reaction Biology Corporation
# Summary of the method: as §1
# Haspin = biological target: T16, Haspin (Homo sapiens, UniProt Q8TF76)
# T16 construct: purchased Reaction Biology Corporation
# Summary of the method: as §1
# MRCKb/CDC42BPB = biological target: T17, MRCKb/CDC42BPB (Homo sapiens, UniProt Q9Y5S2)
# T17 construct: purchased Reaction Biology Corporation
# Summary of the method: as §1
# MARK4 = biological target: T18, MARK4 (Homo sapiens, UniProt Q96L34)
# T18 construct: purchased Reaction Biology Corporation
# Summary of the method: as §1
# GRK4 = biological target: T19, GRK4 (Homo sapiens, UniProt P32298)
# T19 construct: purchased Reaction Biology Corporation
# Summary of the method: as §1
# P38g = biological target: T20, P38g (Homo sapiens, UniProt P53778)
# T20 construct: purchased Reaction Biology Corporation
# Summary of the method: as §1
# DMPK = biological target: T21, DMPK (Homo sapiens, UniProt Q09013)
# T21 construct: purchased Reaction Biology Corporation
# Summary of the method: as §1
# ERN2/IRE2 = biological target: T22, ERN2/IRE2 (Homo sapiens, UniProt Q76MJ5)
# T22 construct: purchased Reaction Biology Corporation
# Summary of the method: as §1
# MARK1 = biological target: T23, MARK1 (Homo sapiens, UniProt Q9P0L2)
# T23 construct: purchased Reaction Biology Corporation
# Summary of the method: as §1
# P38a/MAPK14 = biological target: T24, P38a/MAPK14 (Homo sapiens, UniProt Q16539)
# T24 construct: purchased Reaction Biology Corporation
# Summary of the method: as §1
# CK1a1L = biological target: T25, CK1a1L (Homo sapiens, UniProt Q8N752)
# T25 construct: purchased Reaction Biology Corporation
# Summary of the method: as §1
# ZAK/MLTK = biological target: T26, ZAK/MLTK (Homo sapiens, UniProt Q9NYL2)
# T26 construct: purchased Reaction Biology Corporation
# Summary of the method: as §1
# NEK5 = biological target: T27, NEK5 (Homo sapiens, UniProt Q6P3R8)
# T27 construct: purchased Reaction Biology Corporation
# Summary of the method: as §1
# MKK4 = biological target: T28, MKK4 (Homo sapiens, UniProt P45985)
# T28 construct: purchased Reaction Biology Corporation
# Summary of the method: as §1
# MST4 = biological target: T29, MST4 (Homo sapiens, UniProt Q9P289)
# T29 construct: purchased Reaction Biology Corporation
# Summary of the method: as §1
# STK33 = biological target: T30, STK33 (Homo sapiens, UniProt Q9BYT3)
# T30 construct: purchased Reaction Biology Corporation
# Summary of the method: as §1
# TYK2 = biological target: T31, TYK2 (Homo sapiens, UniProt P29597)
# T31 construct: purchased Reaction Biology Corporation
# Summary of the method: as §1
# PKN1/PRK1 = biological target: T32, PKN1/PRK1 (Homo sapiens, UniProt Q16512)
# T32 construct: purchased Reaction Biology Corporation
# Summary of the method: as §1
# MYLK4 = biological target: T33, MYLK4 (Homo sapiens, UniProt Q86YV6)
# T33 construct: purchased Reaction Biology Corporation
# Summary of the method: as §1
# T13 sequence (Q13153 whole entry): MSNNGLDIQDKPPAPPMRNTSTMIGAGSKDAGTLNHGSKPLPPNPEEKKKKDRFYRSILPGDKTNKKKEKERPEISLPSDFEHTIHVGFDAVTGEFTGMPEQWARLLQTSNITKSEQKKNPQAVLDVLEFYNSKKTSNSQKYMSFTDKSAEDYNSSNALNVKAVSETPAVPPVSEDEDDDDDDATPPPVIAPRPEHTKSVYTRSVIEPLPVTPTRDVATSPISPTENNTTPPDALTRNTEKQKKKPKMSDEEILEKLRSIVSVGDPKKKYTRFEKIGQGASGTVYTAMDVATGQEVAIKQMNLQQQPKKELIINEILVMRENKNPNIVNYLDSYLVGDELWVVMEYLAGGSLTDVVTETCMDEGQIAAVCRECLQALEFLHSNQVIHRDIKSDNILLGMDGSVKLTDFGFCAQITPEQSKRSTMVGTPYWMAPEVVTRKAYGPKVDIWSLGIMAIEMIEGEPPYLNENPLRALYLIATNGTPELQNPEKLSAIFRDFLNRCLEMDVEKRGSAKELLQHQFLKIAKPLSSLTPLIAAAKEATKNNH
# T4 sequence (O95382 whole entry): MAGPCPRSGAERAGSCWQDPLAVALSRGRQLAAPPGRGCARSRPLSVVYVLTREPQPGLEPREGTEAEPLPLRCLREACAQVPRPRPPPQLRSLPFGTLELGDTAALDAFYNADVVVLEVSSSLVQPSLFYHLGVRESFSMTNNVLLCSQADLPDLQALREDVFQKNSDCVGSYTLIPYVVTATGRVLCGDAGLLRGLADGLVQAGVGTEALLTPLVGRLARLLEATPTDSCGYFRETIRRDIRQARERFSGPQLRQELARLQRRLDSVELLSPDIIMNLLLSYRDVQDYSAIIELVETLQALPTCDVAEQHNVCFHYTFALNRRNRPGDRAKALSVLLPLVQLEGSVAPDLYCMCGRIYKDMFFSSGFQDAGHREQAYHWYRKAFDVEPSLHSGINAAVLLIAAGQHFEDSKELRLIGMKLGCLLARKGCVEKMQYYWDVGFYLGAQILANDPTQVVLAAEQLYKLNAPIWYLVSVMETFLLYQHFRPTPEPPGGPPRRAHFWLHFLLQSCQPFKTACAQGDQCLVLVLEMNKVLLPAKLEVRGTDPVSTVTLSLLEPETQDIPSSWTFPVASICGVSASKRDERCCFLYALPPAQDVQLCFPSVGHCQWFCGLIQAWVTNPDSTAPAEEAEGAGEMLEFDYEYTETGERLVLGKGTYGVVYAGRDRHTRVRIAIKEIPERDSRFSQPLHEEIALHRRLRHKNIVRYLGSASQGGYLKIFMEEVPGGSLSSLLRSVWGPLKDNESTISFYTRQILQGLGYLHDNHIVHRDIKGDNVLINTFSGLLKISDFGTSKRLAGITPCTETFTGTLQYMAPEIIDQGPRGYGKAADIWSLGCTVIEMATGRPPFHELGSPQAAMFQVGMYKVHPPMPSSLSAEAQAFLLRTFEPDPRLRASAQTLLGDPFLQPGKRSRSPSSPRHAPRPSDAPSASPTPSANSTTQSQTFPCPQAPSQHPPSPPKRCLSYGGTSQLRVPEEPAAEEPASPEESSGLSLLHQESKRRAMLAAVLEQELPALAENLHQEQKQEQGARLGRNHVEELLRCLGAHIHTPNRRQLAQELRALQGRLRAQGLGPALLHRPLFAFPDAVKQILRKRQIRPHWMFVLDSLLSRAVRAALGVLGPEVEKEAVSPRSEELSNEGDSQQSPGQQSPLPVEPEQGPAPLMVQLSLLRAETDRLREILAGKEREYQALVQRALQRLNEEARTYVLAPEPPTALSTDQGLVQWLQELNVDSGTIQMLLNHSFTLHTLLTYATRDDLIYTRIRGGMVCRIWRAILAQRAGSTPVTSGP
# T20 sequence (P53778 whole entry): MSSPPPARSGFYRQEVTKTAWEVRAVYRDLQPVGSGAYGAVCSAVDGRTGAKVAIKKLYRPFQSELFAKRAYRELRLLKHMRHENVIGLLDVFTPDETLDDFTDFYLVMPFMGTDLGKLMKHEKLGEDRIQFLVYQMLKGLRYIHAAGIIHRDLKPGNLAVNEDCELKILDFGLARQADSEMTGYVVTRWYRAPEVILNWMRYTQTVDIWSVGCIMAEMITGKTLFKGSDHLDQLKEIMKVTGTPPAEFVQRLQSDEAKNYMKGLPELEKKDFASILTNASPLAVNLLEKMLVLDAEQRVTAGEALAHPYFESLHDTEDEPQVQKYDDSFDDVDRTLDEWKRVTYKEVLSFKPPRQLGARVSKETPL
# T25 sequence (Q8N752 whole entry): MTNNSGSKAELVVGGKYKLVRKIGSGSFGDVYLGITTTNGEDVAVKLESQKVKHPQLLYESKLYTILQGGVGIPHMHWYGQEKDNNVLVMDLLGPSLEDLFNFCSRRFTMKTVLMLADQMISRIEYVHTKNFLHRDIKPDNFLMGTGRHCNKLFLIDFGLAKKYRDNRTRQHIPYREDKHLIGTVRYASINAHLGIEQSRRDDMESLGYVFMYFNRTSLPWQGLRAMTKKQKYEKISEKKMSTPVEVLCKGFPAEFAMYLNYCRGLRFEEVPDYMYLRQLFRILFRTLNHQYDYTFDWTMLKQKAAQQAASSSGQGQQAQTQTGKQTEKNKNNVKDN
# T31 sequence (P29597 whole entry): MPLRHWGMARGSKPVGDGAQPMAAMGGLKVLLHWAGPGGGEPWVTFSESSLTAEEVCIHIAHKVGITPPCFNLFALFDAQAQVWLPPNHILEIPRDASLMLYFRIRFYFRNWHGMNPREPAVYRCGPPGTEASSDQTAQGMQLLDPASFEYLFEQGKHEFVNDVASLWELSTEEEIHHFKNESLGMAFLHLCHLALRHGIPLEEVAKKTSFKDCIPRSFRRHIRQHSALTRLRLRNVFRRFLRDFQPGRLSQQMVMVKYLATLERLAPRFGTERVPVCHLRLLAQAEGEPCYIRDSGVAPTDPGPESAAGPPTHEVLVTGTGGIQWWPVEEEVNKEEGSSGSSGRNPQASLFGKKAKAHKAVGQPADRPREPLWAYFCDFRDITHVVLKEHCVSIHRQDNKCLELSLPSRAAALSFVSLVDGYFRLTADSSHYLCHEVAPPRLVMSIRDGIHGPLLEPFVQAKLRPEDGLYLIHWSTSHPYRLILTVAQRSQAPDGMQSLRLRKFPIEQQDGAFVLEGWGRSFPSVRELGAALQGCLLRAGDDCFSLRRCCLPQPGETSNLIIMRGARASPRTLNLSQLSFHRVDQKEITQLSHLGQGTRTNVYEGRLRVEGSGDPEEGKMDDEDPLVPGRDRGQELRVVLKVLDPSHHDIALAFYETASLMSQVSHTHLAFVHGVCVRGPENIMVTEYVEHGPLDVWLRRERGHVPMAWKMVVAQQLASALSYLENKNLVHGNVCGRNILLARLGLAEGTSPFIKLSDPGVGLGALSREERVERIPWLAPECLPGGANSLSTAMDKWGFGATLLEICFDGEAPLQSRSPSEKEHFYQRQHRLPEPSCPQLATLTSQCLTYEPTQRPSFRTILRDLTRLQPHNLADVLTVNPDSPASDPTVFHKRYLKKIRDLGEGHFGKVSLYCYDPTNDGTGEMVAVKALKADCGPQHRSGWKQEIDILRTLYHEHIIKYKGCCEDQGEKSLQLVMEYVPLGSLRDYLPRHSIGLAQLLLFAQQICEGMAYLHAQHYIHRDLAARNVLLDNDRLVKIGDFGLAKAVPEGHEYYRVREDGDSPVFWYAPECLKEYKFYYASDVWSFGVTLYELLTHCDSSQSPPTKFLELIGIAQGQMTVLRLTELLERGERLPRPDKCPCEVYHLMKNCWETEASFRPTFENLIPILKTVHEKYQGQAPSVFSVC
# T15 sequence (Q00535 whole entry): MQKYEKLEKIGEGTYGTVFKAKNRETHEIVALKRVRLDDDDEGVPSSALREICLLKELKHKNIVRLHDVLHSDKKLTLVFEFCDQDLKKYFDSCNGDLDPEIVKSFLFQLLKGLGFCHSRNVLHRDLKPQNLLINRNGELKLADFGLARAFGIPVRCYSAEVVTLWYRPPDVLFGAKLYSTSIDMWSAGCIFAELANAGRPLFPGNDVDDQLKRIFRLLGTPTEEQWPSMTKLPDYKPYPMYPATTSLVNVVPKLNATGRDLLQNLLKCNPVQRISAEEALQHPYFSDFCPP
# T15 sequence (Q15078 99-307 partner limits assumed): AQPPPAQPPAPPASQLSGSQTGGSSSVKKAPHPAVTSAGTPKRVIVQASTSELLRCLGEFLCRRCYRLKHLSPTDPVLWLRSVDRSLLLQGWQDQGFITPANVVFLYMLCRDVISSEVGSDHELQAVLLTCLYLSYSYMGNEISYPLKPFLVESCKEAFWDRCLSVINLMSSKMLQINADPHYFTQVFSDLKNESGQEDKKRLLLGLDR
# T12 sequence (Q8NE63 whole entry): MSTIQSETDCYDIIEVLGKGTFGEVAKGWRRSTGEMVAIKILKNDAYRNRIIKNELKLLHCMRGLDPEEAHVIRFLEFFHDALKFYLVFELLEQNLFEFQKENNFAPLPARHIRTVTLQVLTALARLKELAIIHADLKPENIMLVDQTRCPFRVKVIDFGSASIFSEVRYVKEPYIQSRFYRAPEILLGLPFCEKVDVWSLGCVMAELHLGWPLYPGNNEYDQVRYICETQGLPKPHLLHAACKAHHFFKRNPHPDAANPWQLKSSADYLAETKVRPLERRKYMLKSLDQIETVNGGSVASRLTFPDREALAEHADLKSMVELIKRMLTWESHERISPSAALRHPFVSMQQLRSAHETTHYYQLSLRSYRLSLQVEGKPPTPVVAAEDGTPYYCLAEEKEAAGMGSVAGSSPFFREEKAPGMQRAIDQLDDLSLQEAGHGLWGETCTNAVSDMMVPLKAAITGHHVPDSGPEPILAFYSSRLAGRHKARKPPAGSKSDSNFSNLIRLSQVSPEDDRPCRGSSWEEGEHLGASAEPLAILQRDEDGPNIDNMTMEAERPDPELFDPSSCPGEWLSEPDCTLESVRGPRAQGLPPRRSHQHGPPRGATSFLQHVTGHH
smiles,measurement,setting,value
"CC(=O)Nc1nc2ccc(-c3cnc(C)c(NC(=O)OC4CCCCC4)c3)cc2s1 [PK68, cyclohexyl (5-(2-acetamidobenzo[d]thiazol-6-yl)-2-methylpyridin-3-yl)carbamate]",Activity%,c-Kit; 1 μM,75.47%
same,activity at 1 µM,c-Kit,77.5%
same,Activity%,MEKK1; 1 μM,92.88%
same,activity at 1 µM,MEKK1,95.3%
same,Activity%,BRAF; 1 μM,83.61%
same,activity at 1 µM,BRAF,84.8%
same,Activity%,MEKK6; 1 μM,88.83%
same,activity at 1 µM,MEKK6,91.3%
same,Activity%,MSK2/RPS6KA4; 1 μM,106.42%
same,activity at 1 µM,MSK2/RPS6KA4,107%
same,Activity%,TTBK1; 1 μM,107.17%
same,activity at 1 µM,TTBK1,110%
same,Activity%,MEK1; 1 μM,97.25%
same,activity at 1 µM,MEK1,99%
same,Activity%,EPHA6; 1 μM,97.58%
same,activity at 1 µM,EPHA6,98.1%
same,Activity%,Aurora B; 1 μM,83.50%
same,activity at 1 µM,Aurora B,83.7%
same,Activity%,PAK3; 1 μM,99.63%
same,activity at 1 µM,PAK3,103%
same,Activity%,AXL; 1 μM,98.35%
same,activity at 1 µM,AXL,98.8%
same,Activity%,HIPK4; 1 μM,72.16%
same,activity at 1 µM,HIPK4,74.6%
same,Activity%,PAK1; 1 μM,101.03%
same,activity at 1 µM,PAK1,102%
same,Activity%,DCAMKL1; 1 μM,87.59%
same,activity at 1 µM,DCAMKL1,87.7%
same,Activity%,CDK5/p25; 1 μM,92.68%
same,activity at 1 µM,CDK5/p25,94.1%
same,Activity%,Haspin; 1 μM,94.31%
same,activity at 1 µM,Haspin,94.5%
same,Activity%,MRCKb/CDC42BPB; 1 μM,101.65%
same,activity at 1 µM,MRCKb/CDC42BPB,104%
same,Activity%,MARK4; 1 μM,101.55%
same,activity at 1 µM,MARK4,103%
same,Activity%,GRK4; 1 μM,103.31%
same,activity at 1 µM,GRK4,107%
same,Activity%,P38g; 1 μM,105.38%
same,activity at 1 µM,P38g,109%
same,Activity%,DMPK; 1 μM,100.30%
same,activity at 1 µM,DMPK,101%
same,Activity%,ERN2/IRE2; 1 μM,92.56%
same,activity at 1 µM,ERN2/IRE2,93.1%
same,Activity%,MARK1; 1 μM,96.33%
same,activity at 1 µM,MARK1,97%
same,Activity%,P38a/MAPK14; 1 μM,102.59%
same,activity at 1 µM,P38a/MAPK14,106%
same,Activity%,CK1a1L; 1 μM,103.24%
same,activity at 1 µM,CK1a1L,106%
same,Activity%,ZAK/MLTK; 1 μM,66.51%
same,activity at 1 µM,ZAK/MLTK,68.6%
same,Activity%,NEK5; 1 μM,95.10%
same,activity at 1 µM,NEK5,95.5%
same,Activity%,MKK4; 1 μM,98.91%
same,activity at 1 µM,MKK4,99.1%
same,Activity%,MST4; 1 μM,101.18%
same,activity at 1 µM,MST4,102%
same,Activity%,STK33; 1 μM,91.58%
same,activity at 1 µM,STK33,91.6%
same,Activity%,TYK2; 1 μM,100.62%
same,activity at 1 µM,TYK2,106%
same,Activity%,PKN1/PRK1; 1 μM,96.02%
same,activity at 1 µM,PKN1/PRK1,97.8%
same,Activity%,MYLK4; 1 μM,89.75%
same,activity at 1 µM,MYLK4,92.7%
